Assays:
[1] = 298.15 K, Ring tensiometer
[2] = xn = mol fraction of the nth substance listed; conditions: 298.15 K, Ring tensiometer

O [water]
Conditions | surface tension liquid-gas [mN/m]
[1] | 72.09

CC#N [acetonitrile]
Conditions | surface tension liquid-gas [mN/m]
[1] | 27.76

CC(C)O [propan-2-ol] + O
[2]
Conditions | surface tension liquid-gas [mN/m]
x2 = 0.099 | 21.65
x2 = 0.2949 | 21.97
x2 = 0.5018 | 22.28
x2 = 0.5993 | 22.74
x2 = 0.7021 | 23.28
x2 = 0.8 | 24.37
x2 = 0.8502 | 25.04
x2 = 0.8991 | 26.64
x2 = 0.945 | 32.36
x2 = 0.9598 | 35.83
x2 = 0.9697 | 39.36

CC#N [acetonitrile] + CC(C)O
[2]
Conditions | surface tension liquid-gas [mN/m]
x1 = 0.2001 | 21.05
x1 = 0.3621 | 21.55
x1 = 0.4885 | 22.15
x1 = 0.5398 | 22.44
x1 = 0.6001 | 22.88
x1 = 0.7 | 23.84
x1 = 0.8001 | 24.94
x1 = 0.8984 | 26.23
x1 = 0.9579 | 27.1
x1 = 0.9701 | 27.28
x1 = 0.9851 | 27.55

CC(C)O [propan-2-ol]
Conditions | surface tension liquid-gas [mN/m]
[1] | 20.95

CC#N [acetonitrile] + O
[2]
Conditions | surface tension liquid-gas [mN/m]
x2 = 0.2032 | 29.46
x2 = 0.4087 | 30.95
x2 = 0.5149 | 31.45
x2 = 0.6041 | 31.68
x2 = 0.7459 | 32.92
x2 = 0.8145 | 33.97
x2 = 0.8773 | 37.97
x2 = 0.8977 | 39.63
x2 = 0.905 | 40.54
x2 = 0.9484 | 49.39
x2 = 0.9702 | 55.92
x2 = 0.9851 | 62.36
